Patent publication US20230014352A1, “INHALED STATINS AS BRONCHODILATORS TO IMPROVE LUNG FUNCTION IN RESPIRATORY DISEASES” (priority 2019, published 2023)
“Also recorded” adds a separate entry of the source. Where two headings read alike, the source gives them in different places.

Experiments:
[1] = system: primary human airway smooth muscle (ASM) cells; assay: Contractile force screening (CFS), basal ASM cell contraction (strain energy); type: cell-based; settings: for strain energy (ASM contraction) / basal ASM cell contraction: 24 hours; for strain energy (ASM contraction): compared to pravastatin, FIG. 1C; for basal ASM cell contraction: FIG. 1A/1D
Description: Primary human airway smooth muscle (ASM) cells derived from both non-asthmatic and asthmatic donors were obtained from the Gift of Hope Organ and Tissue Donor Network. These cells have been well-characterized previously (see for example H. Yoshie et al., Biophys J (2018) 114(9):2194-99). All measurements were performed using cells at passage 5-8 from three non-asthmatic donors. Cells were grown on either 10% serum-containing F12 complete media, or serum-deprived media supplemented with insulin, transferrin, and selenium (Corning, Tewksbury, Mass.). Contractile Force Screening: Human ASM cells were grown to confluence in 96-well plates on custom NuSilTM 8100 elastic substrates (Avantor, Inc., Radnor, Pa.) (R. […] Fluorescent beads (diameter 400 nm) were embedded in the substrate surface to enable traction force calculations based on their displacements. To measure fractions, an inverted epi-fluorescence microscope (DMI 6000B, Leica Inc., Germany) equipped with a heated chamber (37° C.), a monochrome camera ([…]), and a motorized stage was used. Spatial images were recorded of substrate-embedded fluorescent beads at 10× magnification. Based on the bead displacements (resolution 15 μm) relative to a cell-free model, together with knowledge of substrate stiffness and thickness, fractions were computed using the approach of Fourier Transform Traction Cytometry ([…] et al., Pharmacol Ther (2014) 143(1):87-110), modified to the case of cell monolayers ([…] et al., Cell (2007) 129(3):511-22). From each fraction map, the root-mean-squared traction (RMST) value and strain energy were calculated and reported as a measure of normal contraction in the monolayer. On a well-by-well basis, the ratio of the strain energy after vs. before treatment was computed, and all values of a given treatment group were normalized to the mean of each treatment group. Comparison of Statins: […] MA is the immediate product of HMGCR action on HMB-CoA, so addition of MA would reverse the effect of statin inhibition of HMGCR. […] Simvastatin-acid (SA), atorvastatin, pravastatin, and pitavastatin were examined with CFS to determine the dose response of the ASM relaxation effect. […] From each ASM force map, the strain energy (i.e., the energy that is imparted to the substrate by the contractile cells, in pJ) was computed, to represent the average cellular contraction.

ASM cells [2] = assay: Simulated deep breath (stretch-unstretch), cell mapping rheometry and CFS; type: cell-based, human; settings: 10 μM, 30 min
Description: Well-defined biaxial stretch (4 sec duration, 10% magnitude) was imposed using the method of cell mapping rheometry. The strain energy from each ASM force map was computed as a metric of average cellular contraction, and reported as fold changes to the pre-stretch baseline value.
Normal ASM was treated with pitavastatin (1 μM, 24 hrs, n=7), isoproterenol (10 μM, 30 min, n=6) or vehicle (n=7), and examined by CFS as described above. […] Shown are contraction values normalized to the untreated control group. […] The contraction force gradually recovered over 180 seconds. […] All data are reported as mean and standard error of the mean (SEM).

[3] = system: precision-cut human lung slices; assay: Histamine-induced bronchoconstriction in precision-cut human lung slices, pitavastatin and isoproterenol; settings: 30 μM for 30 min after histamine 10 μM 15 min; FIG. 13
Description: The experiment was performed under serum-deprived media conditions, n=3-7 airways per group. Changes in lumen narrowing were reported as percentage changes (±SEM) of the pre-treatment state (see FIG. 13). The absolute value of lumen airway area was not statistically different between the pitavastatin and control groups at the pre-treatment state.

ASM cells [4] = assay: RealTime-Glo Annexin V Apoptosis and Necrosis assay; type: cell-based, human
Description: Lack of apoptosis: Some studies have shown that statins at high enough doses can reduce the viability of vascular smooth muscle cells, epithelial cells, and endothelial cells (S. Ghavami et al., Biochim Biophys Acta (2014) 1843(7):1259-71; T. P. Miettinen et al., Cell Rep (2015) 13(11):2610-20).
RealTime-Glo™ Annexin V Apoptosis and Necrosis assay was performed by growing ASM cells on 96-well white cell culture plate according to the manufacturer's instructions (Promega Inc). […] In this real-time annexin V binding assay, the luminescence signal was detected for apoptosis and necrosis was detected with a fluorescence signal by using a SpectraMax® plate reader. […] (20 μg/mL) was used as a positive control (FIG. 2).

[5] = Tissue distribution of inhaled (nebulized) simvastatin, mass spectrometry; settings: day 12, organs collected after euthanasia

**Q.** With `CC(C)c1c(C(=O)Nc2ccccc2)c(-c2ccccc2)c(-c2ccc(F)cc2)n1CC[C@@H](O)C[C@@H](O)CC(=O)O` [atorvastatin] as the molecule, how does the “strain energy (ASM contraction)” value ([1]; 2 and 10 μM) read?
**A.** significantly (and further) reduce strain energy

**Q.** What does the source list for `CC(C)NCC(O)c1ccc(O)c(O)c1` (centres unmarked) [isoproterenol]?
**A.** basal ASM contraction compared to untreated controls (ASM cells [2]; FIG. 12A): significantly inhibited basal ASM contraction; augmentation of stretch-induced ASM force relaxation (ASM cells [2]; FIG. 12B): not conferred; also recorded: notably absent; histamine (Hist)-induced bronchoconstriction [3]: reduced

**Q.** Which “apoptosis and necrosis (cell death)” value (ASM cells [4]) does the source give for `CC[C@H](C)C(=O)O[C@H]1C[C@H](O)C=C2C=C[C@H](C)[C@H](CC[C@@H](O)C[C@@H](O)CC(=O)O)[C@H]21` [pravastatin] here?
**A.** no evidence of apoptosis or cell death

**Q.** And the “strain energy (ASM contraction)” value ([1]; 0.4 μM)?
**A.** no effect

**Q.** For `CC(C)c1nc(N(C)S(C)(=O)=O)nc(-c2ccc(F)cc2)c1/C=C/[C@@H](O)C[C@@H](O)CC(=O)O` [rosuvastatin], which “apoptosis and necrosis (cell death)” value (ASM cells [4]) is on record?
**A.** no evidence of apoptosis or cell death

**Q.** What about the “basal ASM cell contraction” value ([1]; 1 μM) of the same molecule?
**A.** little to no effect

**Q.** Which results are given for `CCC(C)(C)C(=O)O[C@H]1C[C@@H](C)C=C2C=C[C@H](C)[C@H](CC[C@@H](O)C[C@@H](O)CC(=O)O)[C@H]21` [simvastatin acid]?
**A.** dose-dependent effect on ASM ([1]; primary ASM cells from three different human donors, FIG. 3): dose-dependently relax ASM; start of ASM relaxing effects ([1]; time-dependent effects, FIG. 4C): 4 h

**Q.** With `CCC(C)(C)C(=O)O[C@H]1C[C@@H](C)C=C2C=C[C@H](C)[C@H](CC[C@@H]3C[C@@H](O)CC(=O)O3)[C@H]21` [simvastatin] as the molecule, how does the “apoptosis and necrosis (cell death)” value (ASM cells [4]; statin doses tested, FIGS. 2B-E) read?
**A.** no evidence of apoptosis or cell death

**Q.** What about the “basal ASM cell contraction” value ([1]; 1 μM) of the same molecule?
**A.** more potent

**Q.** And the “ASM contraction over time compared to control” value ([1]; 1 μM, serum-deprived media, FIG. 10B)?
**A.** reduced ASM contraction time-dependently

**Q.** What about the tissue distribution [5] of the same molecule?
**A.** mostly present in the mainstem bronchi and the lower lobes
